In doi:10.1101/2023.01.30.526200v1, “The virus-encoded ion channel “viroporin” activity of the agnoprotein is required for BK Polyomavirus release from infected kidney cells” (biorxiv, 2023):

How the values were obtained:
[1] = target: T1, BKPyV agnoprotein (recombinant 10xHis BK agnoprotein) (Betapolyomavirus hominis, UniProt P03085); experiment: carboxyfluorescein release from liposomes, endpoint fluorescence; assay type: biochemical; details: recombinant protein pre-incubated with compound 10 min at room temperature; PA/PC liposomes, HBS pH 7.4; 400 uM rimantadine
T1 construct: full-length, N-terminal 10xHis tag kept (pET19b, codon optimised), expressed in E. coli, purified by Ni-NTA, cation exchange and C4, dissolved in DMSO; SDS-resistant oligomers (copy number undefined); reconstituted in PA/PC liposomes
T1 sequence (P03085 whole entry): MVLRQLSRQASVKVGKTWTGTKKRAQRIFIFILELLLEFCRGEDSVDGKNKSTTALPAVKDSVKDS

[2] = target: T1, BKPyV agnoprotein (recombinant 10xHis BK agnoprotein); experiment: as above; assay type: biochemical; details: recombinant protein pre-incubated with compound 10 min at room temperature; PA/PC liposomes, HBS pH 7.4; compound concentration not in text

Compound	% reduction in channel activity at 400 uM [1]	reduction in CF release [2]
CC(N)C12CC3CC(CC(C3)C1)C2 (centres unmarked) [rimantadine]	~ 50%	–
CCCCCCCCCN1C[C@H](O)[C@@H](O)[C@H](O)[C@H]1CO [NN-DNJ]	–	Addition of NN-DNJ also led to a significant reduction in agnoprotein mediated CF release
